{"source": "ChEMBL document CHEMBL1201862", "about": "“PubChem BioAssay data set” (2004)", "key": {"Beta-galactosidase": {"target": "Beta-galactosidase (Escherichia coli, UniProt Q8VNN2)", "sequence (Q8VNN2 whole entry)": "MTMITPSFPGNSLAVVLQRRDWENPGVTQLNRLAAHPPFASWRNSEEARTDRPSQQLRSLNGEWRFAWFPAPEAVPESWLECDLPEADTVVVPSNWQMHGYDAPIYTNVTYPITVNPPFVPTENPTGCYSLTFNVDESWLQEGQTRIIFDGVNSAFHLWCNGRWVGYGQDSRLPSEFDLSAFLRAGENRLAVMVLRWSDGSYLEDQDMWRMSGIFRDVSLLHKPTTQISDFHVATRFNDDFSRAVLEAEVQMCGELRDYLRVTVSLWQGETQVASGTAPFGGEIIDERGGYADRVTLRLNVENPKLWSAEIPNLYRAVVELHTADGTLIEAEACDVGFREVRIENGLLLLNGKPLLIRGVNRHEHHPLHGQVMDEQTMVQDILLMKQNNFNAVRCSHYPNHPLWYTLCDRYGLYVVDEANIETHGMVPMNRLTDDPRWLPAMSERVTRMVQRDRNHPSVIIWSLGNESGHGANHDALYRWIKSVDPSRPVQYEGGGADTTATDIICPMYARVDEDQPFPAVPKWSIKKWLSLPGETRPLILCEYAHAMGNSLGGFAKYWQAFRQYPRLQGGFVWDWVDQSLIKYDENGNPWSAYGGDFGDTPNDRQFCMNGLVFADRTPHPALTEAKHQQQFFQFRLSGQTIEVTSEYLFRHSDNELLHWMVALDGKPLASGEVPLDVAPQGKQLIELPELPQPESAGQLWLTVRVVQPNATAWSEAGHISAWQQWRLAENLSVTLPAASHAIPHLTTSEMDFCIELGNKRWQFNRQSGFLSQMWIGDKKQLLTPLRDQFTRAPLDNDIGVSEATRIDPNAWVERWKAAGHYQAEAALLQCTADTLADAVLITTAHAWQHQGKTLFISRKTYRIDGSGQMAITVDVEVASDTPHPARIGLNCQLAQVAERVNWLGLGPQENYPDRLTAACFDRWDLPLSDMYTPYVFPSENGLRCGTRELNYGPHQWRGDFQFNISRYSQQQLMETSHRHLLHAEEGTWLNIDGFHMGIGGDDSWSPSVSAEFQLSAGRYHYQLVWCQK", "assay": "beta-galactosidase enzyme inhibitors and activators, dose response, artefact control for CCR6 antagonist project, biochemical, E. coli enzyme, set 3 (AID 504712)", "type": "functional"}, "H9c2": {"system": "H9c2", "assay": "cells", "type": "functional, cell-based", "conditions": "Rattus norvegicus, H9c2, Myocardium"}, "[1]": {"target": "G-protein coupled receptor 55 (Homo sapiens, UniProt Q9Y2T6)", "sequence (Q9Y2T6 whole entry)": "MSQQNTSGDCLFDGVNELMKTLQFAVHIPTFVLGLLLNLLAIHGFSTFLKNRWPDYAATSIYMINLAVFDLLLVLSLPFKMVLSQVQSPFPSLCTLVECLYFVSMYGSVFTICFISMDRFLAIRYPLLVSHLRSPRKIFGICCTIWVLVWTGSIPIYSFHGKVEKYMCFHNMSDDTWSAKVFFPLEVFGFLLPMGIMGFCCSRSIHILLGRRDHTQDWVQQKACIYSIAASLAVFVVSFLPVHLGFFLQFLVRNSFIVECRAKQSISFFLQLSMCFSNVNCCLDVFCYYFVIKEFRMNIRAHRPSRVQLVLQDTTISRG", "assay": "GPR55 agonists via beta-arrestin recruitment, primary screen, imaging, U2OS cells, beta-arrestin-GFP redistribution (AID 1961)", "type": "functional"}, "[2]": {"assay": "HEp-2 cell cytotoxicity, dose response, cytotoxicity control for RSV inhibitor project, HTS (AID 2410)", "type": "functional", "conditions": "human respiratory syncytial virus"}, "[3]": {"target": "T1, Ubiquitin-conjugating enzyme E2 N (Homo sapiens, UniProt P61088)", "T1 sequence (P61088 whole entry)": "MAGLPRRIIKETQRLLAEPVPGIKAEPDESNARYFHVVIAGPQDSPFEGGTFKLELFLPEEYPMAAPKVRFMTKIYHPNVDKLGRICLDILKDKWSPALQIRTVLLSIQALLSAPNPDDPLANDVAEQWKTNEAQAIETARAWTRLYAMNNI", "type": "functional"}, "Trypsin": {"target": "Trypsin (Sus scrofa, UniProt P00761)", "sequence (P00761 whole entry)": "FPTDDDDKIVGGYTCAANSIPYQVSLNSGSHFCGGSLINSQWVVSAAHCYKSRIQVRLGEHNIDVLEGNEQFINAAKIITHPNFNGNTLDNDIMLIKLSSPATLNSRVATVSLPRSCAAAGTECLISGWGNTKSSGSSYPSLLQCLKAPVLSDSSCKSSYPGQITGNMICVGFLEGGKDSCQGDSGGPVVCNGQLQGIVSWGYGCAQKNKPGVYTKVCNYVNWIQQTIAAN", "assay": "porcine trypsin inhibitors, dose response, selectivity assay for Rce1 protease inhibitor project, biochemical, quenched peptide fluorescence, cherry-pick (AID 488789)"}, "CAAX prenyl protease 2": {"target": "T2, CAAX prenyl protease 2 (Saccharomyces cerevisiae S288c, UniProt Q03530)", "T2 sequence (Q03530 whole entry)": "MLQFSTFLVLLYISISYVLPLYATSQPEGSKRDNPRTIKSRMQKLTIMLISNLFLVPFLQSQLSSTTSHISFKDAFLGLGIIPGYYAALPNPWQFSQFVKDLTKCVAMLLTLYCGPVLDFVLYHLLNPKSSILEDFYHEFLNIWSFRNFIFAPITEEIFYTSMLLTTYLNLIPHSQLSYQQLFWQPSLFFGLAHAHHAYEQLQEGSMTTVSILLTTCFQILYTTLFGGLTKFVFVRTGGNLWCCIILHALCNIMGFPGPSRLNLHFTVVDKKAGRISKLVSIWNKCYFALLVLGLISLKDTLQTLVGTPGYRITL", "type": "biochemical"}, "Bcl-2-related protein A1": {"target": "T3, Bcl-2-related protein A1 (Mus musculus, UniProt Q07440)", "T3 sequence (Q07440 whole entry)": "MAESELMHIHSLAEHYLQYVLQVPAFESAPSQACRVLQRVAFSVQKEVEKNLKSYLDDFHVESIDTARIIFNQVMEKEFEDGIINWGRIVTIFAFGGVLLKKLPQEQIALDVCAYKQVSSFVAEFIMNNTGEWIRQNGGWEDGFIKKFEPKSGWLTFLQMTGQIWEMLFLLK", "type": "functional"}}, "note": "Activity calls are given as the source filed them.", "data": [{"smiles": "COc1cccc(-c2nnc(NC(=O)c3ccc(Cl)s3)o2)c1", "values": [{"measurement": "IC50", "setting": "Beta-galactosidase", "value": "> 66.6 µM (inactive)"}, {"measurement": "IC50", "setting": "H9c2", "value": "> 79 µM (inactive)"}]}, {"smiles": "CCN(CC)CCn1c(NC(=O)c2ccccc2O)nc2ccccc21", "values": [{"measurement": "IC50", "setting": "Beta-galactosidase", "value": "> 66.6 µM (inactive)"}]}, {"smiles": "Cc1nc(SCc2ccc(F)cc2)c2oc3ccccc3c2n1", "values": [{"measurement": "EC50", "setting": "[1]", "value": "> 32 µM (inactive)"}]}, {"smiles": "COc1ccccc1NC(=O)Nc1nc(C(C)(C)C)cs1", "values": [{"measurement": "CC50", "setting": "[2]", "value": "> 50 µM (active)"}, {"measurement": "IC50", "setting": "[3]", "value": "> 20 µM (inactive)"}, {"measurement": "IC50", "setting": "cells", "value": "30.3 µM (active)"}]}, {"smiles": "CCN(CC)S(=O)(=O)c1ccc2c(c1)nc(CCC(=O)Nc1cccc(C(F)(F)F)c1)n2CC", "values": [{"measurement": "EC50", "setting": "[1]", "value": "7.88 µM (active)"}]}, {"smiles": "O=C(Nc1cc(S(=O)(=O)N2CCOCC2)ccc1N1CCOCC1)c1cc2c(s1)CCC2", "values": [{"measurement": "EC50", "setting": "[1]", "value": "6.36 µM (active)"}]}, {"smiles": "O=C1CSC(c2cn(-c3ccccc3)nc2-c2cc3ccccc3oc2=O)N1Cc1ccco1", "note": "(stereo not drawn)", "values": [{"measurement": "AC50", "setting": "Trypsin", "value": "9.09 µM (active)"}, {"measurement": "AC50", "setting": "CAAX prenyl protease 2", "value": "30.8 µM (active)"}]}, {"smiles": "O=C(CSc1nc2ccsc2c(=O)n1Cc1ccc(C(=O)O)cc1)NCC1CCCO1", "note": "(stereo not drawn)", "values": [{"measurement": "IC50", "setting": "Bcl-2-related protein A1", "value": "> 20 µM (inactive)"}, {"measurement": "IC50", "setting": "[3]", "value": "17.5 µM (active)"}]}]}
